Laboratory results: ChEMBL document CHEMBL3611967, “Molecular design and synthesis of certain new quinoline derivatives having potential anticancer activity” (Eur J Med Chem, 2015)

Columns and labels:
[1] = tested on: MCF7; test: Anticancer against human MCF7 cells assessed as tumor growth inhibition after 72 hrs by SRB assay; type: functional, cell-based; conditions: MCF7, 72 h
[2] = biological target: T1, Epidermal growth factor receptor (Homo sapiens, UniProt P00533); test: Inhibition of epidermal growth factor receptor kinase (unknown origin) using [33P]-ATP at 0.001 uM after 20 to 30 mins by radiometric assay
[3] = biological target: T1, Epidermal growth factor receptor; test: Inhibition of epidermal growth factor receptor kinase (unknown origin) using [33P]-ATP at 0.1 mM after 20 to 30 mins by radiometric assay
[4] = biological target: T1, Epidermal growth factor receptor; test: Inhibition of epidermal growth factor receptor kinase (unknown origin) using [33P]-ATP after 20 to 30 mins by radiometric assay

T1 sequence (P00533 whole entry): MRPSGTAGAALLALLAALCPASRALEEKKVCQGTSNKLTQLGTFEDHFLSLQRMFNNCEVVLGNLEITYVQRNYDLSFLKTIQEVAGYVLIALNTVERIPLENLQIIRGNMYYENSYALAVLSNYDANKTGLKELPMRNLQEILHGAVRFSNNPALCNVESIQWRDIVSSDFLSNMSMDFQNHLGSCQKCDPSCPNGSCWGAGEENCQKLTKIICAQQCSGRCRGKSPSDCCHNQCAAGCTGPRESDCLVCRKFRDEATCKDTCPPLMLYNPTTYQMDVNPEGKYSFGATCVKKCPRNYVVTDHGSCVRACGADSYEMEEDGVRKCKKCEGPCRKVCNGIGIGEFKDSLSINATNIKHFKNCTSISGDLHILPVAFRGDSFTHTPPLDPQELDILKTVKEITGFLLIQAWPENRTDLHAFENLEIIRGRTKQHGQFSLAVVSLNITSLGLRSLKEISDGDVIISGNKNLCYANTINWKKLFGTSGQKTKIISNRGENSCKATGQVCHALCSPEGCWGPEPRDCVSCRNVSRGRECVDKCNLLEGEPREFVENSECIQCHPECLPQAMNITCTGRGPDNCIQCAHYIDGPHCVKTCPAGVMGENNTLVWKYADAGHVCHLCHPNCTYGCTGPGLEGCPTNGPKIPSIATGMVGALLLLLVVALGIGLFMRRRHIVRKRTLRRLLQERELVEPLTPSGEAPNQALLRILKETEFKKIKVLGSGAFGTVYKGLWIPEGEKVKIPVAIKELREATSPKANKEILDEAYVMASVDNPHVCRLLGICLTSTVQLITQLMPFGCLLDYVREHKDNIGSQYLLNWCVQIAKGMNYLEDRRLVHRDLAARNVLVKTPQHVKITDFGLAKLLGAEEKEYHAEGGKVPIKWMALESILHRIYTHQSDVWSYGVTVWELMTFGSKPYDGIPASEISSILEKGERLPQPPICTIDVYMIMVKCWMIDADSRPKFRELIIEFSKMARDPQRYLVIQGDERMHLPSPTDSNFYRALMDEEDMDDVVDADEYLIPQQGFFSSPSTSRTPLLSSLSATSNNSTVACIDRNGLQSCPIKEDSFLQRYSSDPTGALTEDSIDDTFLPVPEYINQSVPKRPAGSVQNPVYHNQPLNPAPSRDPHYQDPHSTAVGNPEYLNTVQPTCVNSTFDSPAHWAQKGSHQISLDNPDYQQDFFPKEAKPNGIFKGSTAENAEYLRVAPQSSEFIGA

| SMILES | IC50 [1] [µM] | also measured |
| --- | --- | --- |
| NC(=O)c1cnc2ccc(-c3csc(N)n3)cc2c1Nc1ccc(Br)cc1 | 334 | – |
| Cc1ccc(Nc2c(C(N)=O)cnc3ccc(C(=O)/C=C/c4ccc(Cl)cc4)cc23)cc1 | 41.2 | – |
| CN(C)c1ccc(/C=C/C(=O)c2ccc3ncc(C(N)=O)c(Nc4ccc(Cl)cc4)c3c2)cc1 | 3.46 | inhibition [2]: 1%; inhibition [3]: 3%; IC50 [4]: 5.28 µM |
| NC(=O)c1cnc2ccc(C(=O)/C=C/c3ccc(Cl)cc3)cc2c1Nc1ccc(Cl)cc1 | 277 | – |
| NC(=O)c1cnc2ccc(-c3csc(NC(=S)Nc4ccccc4)n3)cc2c1Nc1ccc(Br)cc1 | 657 | – |
| CN(C)c1ccc(/C=C/C(=O)c2ccc3ncc(C(N)=O)c(Nc4ccc(Br)cc4)c3c2)cc1 | 51 | – |
| Cc1cc(NS(=O)(=O)c2ccc3ncc(C(N)=O)c(Nc4ccc(Cl)cc4)c3c2)no1 | 145 | – |
| Cc1ccc(Nc2c(C(N)=O)cnc3ccc(S(=O)(=O)Nc4cc(C)on4)cc23)cc1 | 120 | – |
| NC(=O)c1cnc2ccc(-c3csc(NC(=S)Nc4ccccc4)n3)cc2c1Nc1ccc(Cl)cc1 | 326 | – |
| Cc1cc(NS(=O)(=O)c2ccc(N/C=C(/C#N)C(=O)Nc3ccc(Br)cc3)cc2)no1 | 14 | – |
| Cc1ccc(Nc2c(C(N)=O)cnc3ccc(C(=O)/C=C/c4ccc(N(C)C)cc4)cc23)cc1 | 2.16 | – |
| Cc1ccc(Nc2c(C(N)=O)cnc3ccc(-c4csc(N)n4)cc23)cc1 | 62.2 | – |
| C=CC(=O)Nc1ccc2ncnc(Nc3cc(F)c(Cl)c(Cl)c3)c2c1 | – | IC50 [4]: 3.7e-05 µM |
| Cc1ccc(NC(=O)/C(C#N)=C\Nc2ccc(S(=O)(=O)Nc3cc(C)on3)cc2)cc1 | 50.9 | – |
| NC(=O)c1cnc2ccc(C(=O)/C=C/c3ccc(Cl)cc3)cc2c1Nc1ccc(Br)cc1 | 328 | inhibition [2]: 0%; inhibition [3]: -3%; IC50 [4]: 4.82 µM |
| Cc1cc(NS(=O)(=O)c2ccc(N/C=C(/C#N)C(=O)Nc3ccc(Cl)cc3)cc2)no1 | 28.4 | – |
| Cc1cc(NS(=O)(=O)c2ccc3ncc(C(N)=O)c(Nc4ccc(Br)cc4)c3c2)no1 | 33.7 | – |
| Cc1ccc(Nc2c(C(N)=O)cnc3ccc(-c4csc(NC(=S)Nc5ccccc5)n4)cc23)cc1 | 386 | – |
| NC(=O)c1cnc2ccc(-c3csc(N)n3)cc2c1Nc1ccc(Cl)cc1 | 315 | – |
